Earlier results as cited in patent US20160346319A1, “NO/HE GAS MIXTURE WITH BA[…]” (AIR LIQUIDE SANTE (INTERNATIONAL), priority 2014, published 2016).

Tested on: bacteria
Settings: high dose, certain publications

[N]=O [NO, nitric oxide]
dose of NO showing an antibacterial effect: at least 150 ppm by volume
